From PubChem BioAssay (NCI) come the findings set out here.

“And” between values parts separate entries of the source, which are not always exact repeats. Equal values may be shown once.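 In this assay, cells in 96-well plates receive the compound at five concentrations for 48 hours. Endpoints are linearly interpolated between the surrounding concentrations. Abbreviation: GI50, concentration required for 50% inhibition of growth. At the TGI there is no net growth.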

Test systems include 786-0 renal; A498 renal; HS 578T breast; K-562 leukemia; MALME-3M melanoma; NCI-H522 lung; SF-268 CNS; SK-MEL-2 melanoma; TK-10 renal; UO-31 renal.
Holding throughout (assay): NCI anticancer screen, dose series, 48 h

For the compound `Cc1ccc(S(=O)(=O)NC(CO)C(=O)O)cc1` (stereo not given), the TGI with 786-0 renal, in the assay on A498 renal, in the assay with HS 578T breast, in the assay with K-562 leukemia, with MALME-3M melanoma and with NCI-H522 lung was more than 100 µM throughout. For the same compound, the TGI in the assay on SF-268 CNS, with SK-MEL-2 melanoma, in the assay with TK-10 renal and in the assay on UO-31 renal was more than 100 µM each time.
For the compound `COc1ccc(C(=O)c2cc3c(N)c(C(=O)Nc4cccc(OC)c4)sc3nc2C)cc1`, the GI50 is 0.713 µM in the assay with 786-0 renal; 0.393 µM in the assay with A498 renal; 0.546 µM in the assay on HS 578T breast; 0.378 µM with K-562 leukemia; 0.593 µM in the assay on MALME-3M melanoma; 1.19 µM in the assay with NCI-H522 lung. The GI50 with SF-268 CNS is 1.75 µM; in the assay on SK-MEL-2 melanoma, more than 100 µM; in the assay with TK-10 renal it was more than 100 µM; with UO-31 renal it was 1.14 µM. Also, the TGI in the assay on 786-0 renal, with HS 578T breast, in the assay with K-562 leukemia, with MALME-3M melanoma, with NCI-H522 lung and in the assay with SF-268 CNS was more than 100 µM in each case. Moreover, the TGI in the assay with SK-MEL-2 melanoma, with TK-10 renal and in the assay on UO-31 renal was more than 100 µM each time.
Regarding `O=C(C=C=Nc1ccccc1)C(=O)N=C=Cc1ccccc1`, the GI50 was 1.75 µM in the assay on 786-0 renal; 16 µM in the assay with A498 renal; 2.26 µM with HS 578T breast; 1.59 µM in the assay on K-562 leukemia; 1.54 µM in the assay with MALME-3M melanoma; 1.81 µM in the assay with NCI-H522 lung. The GI50 with SF-268 CNS is 3.43 µM; in the assay with SK-MEL-2 melanoma it was 1.49 µM; in the assay with TK-10 renal, 2.52 µM; with UO-31 renal, 1.63 µM. Besides, the TGI in the assay on 786-0 renal stood at 3.9 µM; in the assay with A498 renal it was 34 µM; with HS 578T breast, 7.31 µM; in the assay on MALME-3M melanoma, 5.33 µM; in the assay on NCI-H522 lung it was 4.97 µM; in the assay on SF-268 CNS, 12.1 µM. Further, the TGI in the assay on SK-MEL-2 melanoma was found to be 8.36 µM; with TK-10 renal, 6.83 µM; in the assay with UO-31 renal, 3.82 µM.
In the case of `CC(/C=N/N=C(N)N)=N\N=C(N)N`, the GI50 with 786-0 renal is 6.12 µM and 1.67 µM; in the assay on A498 renal, more than 77.9 µM; with K-562 leukemia, 23.1 µM; in the assay with MALME-3M melanoma it was more than 39.6 µM; with NCI-H522 lung, 25.1 µM; in the assay on SF-268 CNS, 23.1 µM. Moreover, the results for the GI50 in the assay on SK-MEL-2 melanoma, in the assay with TK-10 renal and with UO-31 renal were 28.9 µM, 32.3 µM and 11 µM, respectively. The TGI in the assay with 786-0 renal is > 83.6 µM and 19.7 µM; in the assay on A498 renal, 1890 µM; in the assay on HS 578T breast it was 169 µM; with K-562 leukemia, 785 µM; in the assay with MALME-3M melanoma, > 76.9 µM and 214 µM; with NCI-H522 lung, 248 µM. For the same compound, the TGI with SF-268 CNS was 92.4 µM; in the assay with SK-MEL-2 melanoma it was 149 µM; with TK-10 renal, 813 µM; in the assay with UO-31 renal it was 552 µM.
For the compound `Cn1cc(C2=C(c3cn(CCCCC(=N)N)c4ccccc34)C(=O)NC2=O)c2ccccc21`, the GI50 was more than 25 µM with 786-0 renal; more than 25 µM in the assay on A498 renal; more than 25 µM in the assay on HS 578T breast; 13.5 µM with K-562 leukemia; more than 25 µM in the assay on MALME-3M melanoma; 18.6 µM in the assay with NCI-H522 lung. For the same compound, the GI50 in the assay on SF-268 CNS was more than 25 µM; in the assay on SK-MEL-2 melanoma, 12.6 µM; in the assay on TK-10 renal, more than 25 µM; in the assay with UO-31 renal it was more than 25 µM. The TGI in the assay with 786-0 renal, with A498 renal, in the assay on HS 578T breast, in the assay with K-562 leukemia, in the assay on MALME-3M melanoma and in the assay with NCI-H522 lung was more than 25 µM in each case. Besides, the TGI in the assay with SF-268 CNS, in the assay with SK-MEL-2 melanoma, in the assay on TK-10 renal and in the assay on UO-31 renal was more than 25 µM each time.
Consider `Nc1c(C(=O)Nc2cccc3ccccc23)sc2nc3c(cc12)C(=O)CCC3`, for which the GI50 is 0.388 µM in the assay on 786-0 renal; 0.0463 µM in the assay on A498 renal; 0.226 µM in the assay with HS 578T breast; 0.131 µM with K-562 leukemia; 0.841 µM in the assay on MALME-3M melanoma; 0.057 µM in the assay on NCI-H522 lung. The GI50 with SF-268 CNS is 0.587 µM; with SK-MEL-2 melanoma, 0.0915 µM; in the assay with TK-10 renal, 12.9 µM; in the assay with UO-31 renal, 0.636 µM. Also, the TGI in the assay on 786-0 renal is 35.8 µM; with A498 renal it was 1.55 µM; with HS 578T breast, more than 100 µM; in the assay with K-562 leukemia it was more than 100 µM; in the assay with MALME-3M melanoma, 54.7 µM; in the assay with NCI-H522 lung, 1.02 µM. Besides, the TGI in the assay on SF-268 CNS is more than 65.6 µM; with SK-MEL-2 melanoma it was 19.1 µM; in the assay with TK-10 renal, more than 100 µM; with UO-31 renal it was more than 95.6 µM.
Turning to `NNC(=O)C(O)C(O)C(=O)NN` (stereo not given), the TGI with 786-0 renal, in the assay with A498 renal, in the assay with HS 578T breast, with K-562 leukemia, in the assay with MALME-3M melanoma and in the assay with NCI-H522 lung was more than 100 µM each time. For the same compound, the TGI with SF-268 CNS, with SK-MEL-2 melanoma, in the assay on TK-10 renal and with UO-31 renal was more than 100 µM each time.
With `O=C(NOCCO)c1cc(CN2OCCCC2=O)c(F)c(F)c1Nc1ccc(I)cc1F`, the GI50 was 15.7 µM and > 10 µM with 786-0 renal; < 0.01 µM and 0.00948 µM in the assay with A498 renal; 20.6 µM and > 10 µM in the assay with HS 578T breast; 1.01 µM and 1.42 µM with K-562 leukemia; < 0.01 µM and 0.00185 µM with MALME-3M melanoma; 18.3 µM and > 7.9 µM in the assay with NCI-H522 lung. Besides, the GI50 was 22.6 µM and > 10 µM in the assay on SF-268 CNS; < 0.01 µM and 0.00324 µM in the assay with SK-MEL-2 melanoma; 0.17 µM and 0.164 µM in the assay on UO-31 renal. Also, the TGI in the assay on 786-0 renal is more than 92.2 µM; with A498 renal it was 0.0355 µM and 0.115 µM; in the assay on HS 578T breast, more than 100 µM; in the assay on K-562 leukemia, more than 100 µM; in the assay with MALME-3M melanoma, less than 0.01 µM; in the assay with NCI-H522 lung it was more than 65.4 µM. The TGI in the assay on SF-268 CNS is more than 100 µM; with TK-10 renal, more than 100 µM; in the assay with UO-31 renal, 13.1 µM and > 10 µM.
